Experimental data: patent US11766468B2, “Method of treating prostate cancer with GnRH antagonist” (priority 2012, dated 2023)
Square brackets hold non-standard residues; d marks the D form. Peptide text beside a SMILES is read from it. * marks the point of attachment. dPhe(4-NHCONH2) = NC(=O)Nc1ccc(C[C@@H](N)C(=O)O)cc1; Dihydroorotyl(S) = O=C1C[C@@H](C(=O)*)NC(=O)N1; dPhe(4-Cl) = N[C@H](Cc1ccc(Cl)cc1)C(=O)O; Phe(4-NH2) = Nc1ccc(C[C@H](N)C(=O)O)cc1; d2Nal = N[C@H](Cc1ccc2ccccc2c1)C(=O)O; Lys(iPr) = CC(C)NCCCC[C@H](N)C(=O)O; d3Pal = N[C@H](Cc1cccnc1)C(=O)O

Experiments:
[1] = in vivo
Method: Body weight was measured at screening and the end of study visit.

luteinizing hormone (LH) = test: CS21: serum LH over time; type: in vivo, human
Method: Finally, the study evaluated the pharmacokinetics of the degarelix dosing regimens investigated.
The secondary efficacy endpoints were: the proportion of patients with testosterone surge during the first 2 weeks of treatment; the proportion of patients with testosterone level ≤0.5 ng/mL at day 3; the percentage change in PSA from baseline to day 28; the probability of testosterone ≤0.5 ng/mL from day 56 through day 364; the levels of serum testosterone, LH, FSH and PSA over time through the study; the time to PSA failure, defined as two consecutive increases of 50%, and at least 5 ng/mL as compared to nadir; degarelix concentration over the first month and trough levels at day 308 and 336; the frequency and size of testosterone increases at day 255 and/or 259 compared to the testosterone level at day 252; the quality of life on days 0, 28, 84, 168 and end of study visit; the frequency and intensity of hot flushes experienced (scored daily from study start until end of study visit. In addition, two further secondary endpoints were added: the probability of sufficient testosterone response from day 28 through day 364 (a patient was considered to have insufficient testosterone response if they had one testosterone value >1.0 ng/mL or two consecutive testosterone values >0.5 ng/mL at day 28 onwards); and the percentage change in PSA from baseline to Day 14.

[2] = CS21: mortality by treatment group; type: in vivo, human
Description: The death of a patient enrolled in this study was not considered an event per se, but rather an outcome. Any event resulting in a fatal outcome was fully documented and reported, including death, which occurred within the four weeks after treatment end, and regardless of the causality relationship to the IMP.
Mortality Subgroups with Statistically (Pre-Planned as Part of the ISS) Significant Findings

testosterone = test: CS21 phase 3 study, degarelix vs leuprolide 7.5 mg: serum testosterone suppression; type: in vivo, human; conditions: for Probability of sufficient testosterone response / Probability of testosterone ≤0.5 ng/mL from Day 28 through Day 364 / Probability of testosterone ≤0.5 ng/mL from Day 56 through Day 364: age <65; for patients with testosterone surge (increase ≥15% from baseline): first two weeks, pooled degarelix
Method: In this example, an open-label, multi-center, randomized, parallel-group study was conducted to investigate the efficacy and safety of degarelix one month dosing regimens. […] These degarelix dosing regimens were compared to LUPRON DEPOT™ at 7.5 mg in patients with prostate cancer requiring androgen ablation therapy. […] Finally, the study evaluated the pharmacokinetics of the degarelix dosing regimens investigated. […] The primary efficacy endpoint was analyzed for both the ITT and PP analysis sets, with the ITT analysis set considered primary. The primary efficacy endpoint was analyzed using the Kaplan Meier method. For each of the three treatment groups, testosterone response rates with 95% confidence interval (CI) were calculated by log-log transformation of survivor function. […] All secondary efficacy endpoints were analyzed for both the ITT and PP analysis sets, unless otherwise stated. […] The percentage change in PSA from baseline to day 28 endpoint was analyzed by a Wilcoxon test. […] The secondary endpoints; probability of testosterone ≤0.5 ng/mL from Day 56 through Day 364, time to PSA failure and probability of sufficient testosterone response from Day 28 through Day 364 were analyzed by the Kaplan-Meier method.

[3] = CS21: incidence rates of cardiovascular events per 1,000 person years (Poisson model), by risk-factor subgroup; conditions: for Coronary artery disease, % of patients / Coronary artery disease, incidence rate / HLGT Cardiac arrhythmias, % of patients / HLGT Cardiac arrhythmias, incidence rate / HLGT Central nervous system vascular disorders, % of patients / HLGT Central nervous system vascular disorders, incidence rate / HLGT Coronary artery disorders, % of patients / HLGT Coronary artery disorders, incidence rate / HLGT Heart failures, % of patients / HLGT Heart failures, incidence rate / Heart failure, % of patients / Heart failure, incidence rate / MI, % of patients / MI, incidence rate / Stroke, % of patients / Stroke, incidence rate: in vivo
Description: The SCS summarizes both crude incidences (n/N) as well as incidence rates of adverse events (number of patients with at least one adverse event investigated per 1,000 person years) including exact 95% CI based on the Poisson model and presented per MedDRA Preferred term (and grouped by SOC) for all study-groups, including the CS21 trial (the trial comprising the controlled phase 3 study group) and for all sub-groups. Briefly, the Poisson model provides exact 1-α lower (LL) and upper (UL) confidence limits are LL=χ2x; α/2^2/(2T) and UL=χ2(x+1); 1-α/2^2/(2T), respectively, where T is the number of 1,000 person years and x=number of subjects at least once having reported the adverse event under investigation (see Gerlinger et al. (2003) Eur. J. Contracept. Reprod. Health Care 8:87-92).
These P values were presented as *(0.01<P≤0.05), ** (0.001<P≤0.01), and *** (P≤0.001). Similarly, incidence rates were compared using P values associated with the Poison model-based UMPU test. Briefly, assuming xi˜Poisson(λiTi), where xi=the number of subjects with the event, Ti=total number of 1,000 person years in arm i and λi=incidence rate in arm i (i=1,2), then the P value=2 min ([…], P(S≤x1), 0.5), where S˜Binomial (x1+x2, T1/(T1+T2)) (see, e.g. Lehmann (1986) Testing Statistical Hypotheses, 2nd edition, Springer-Verlag, New York).
In the SCS, cardiovascular events were more specifically investigated on more aggregated MedDRA levels, i.e. the incidence, and incidence rates of subject with AEs in the following High Level Group Terms were tabulated by study group and treatment:
These subgroup analyses were not pre-planned as part of the SCS.

[4] = degarelix 240@40/80@20, LUPRON DEPOT 7.5 mg
[5] = degarelix 240/80 mg, leuprolide 7.5 mg

## CCNC(=O)[C@@H]1CCCN1C(=O)[C@H](CCCNC(=N)N)NC(=O)[C@H](CC(C)C)NC(=O)[C@@H](CC(C)C)NC(=O)[C@H](Cc1ccc(O)cc1)NC(=O)[C@H](CO)NC(=O)[C@H](Cc1c[nH]c2ccccc12)NC(=O)[C@H](Cc1c[nH]cn1)NC(=O)[C@@H]1CCC(=O)N1 [Leuprolide, leuprolide, reference compound]
[1]
  markedly abnormal increases in weight of ≥7% from baseline, % of patients: 13%
Luteinizing hormone (LH); by day 56 until day 364
  median LH level: 0.035 IU/L
Luteinizing hormone (LH); day 1
  median LH level: 31.0 IU/L
Luteinizing hormone (LH); day 1, leuprolide 7.5 mg
  increase in median LH from baseline: > 400%
[2]; Age >=65-<75
  Crude Mortality: (8%)
  Mortality per 1,000 PY, estimate: 99.0 per 1,000 PY
  No. of Deaths: 6
[2]; PCA = Localized
  Crude Mortality: (6%)
  Mortality per 1,000 PY, estimate: 70.3 per 1,000 PY
  No. of Deaths: 4
testosterone; [4]
  Probability of sufficient testosterone response: 92.1%
  Probability of testosterone ≤0.5 ng/mL from Day 28 through Day 364: 89.5%
  Probability of testosterone ≤0.5 ng/mL from Day 56 through Day 364: 89.5%
testosterone
  patients with testosterone suppression on day 3: no patients
testosterone; [5]
  Kaplan-Meier probability of testosterone ≤0.5 ng/mL from day 28 to day 364: 96.4%
  observed cases analysis: proportion of patients with testosterone ≤0.5 ng/mL from day 28 to day 364: 96.0%
testosterone; leuprolide 7.5 mg
  patients with testosterone surge (increase ≥15% from baseline): 80.1%
[3]
  Coronary artery disease, % of patients: (5%)
  Coronary artery disease, incidence rate: 63.4 per 1,000 person years
  HLGT Cardiac arrhythmias, % of patients: (8%)
  HLGT Cardiac arrhythmias, incidence rate: 100 per 1,000 person years
  HLGT Central nervous system vascular disorders, % of patients: (<1%)
  HLGT Central nervous system vascular disorders, incidence rate: 5.63 per 1,000 person years
  HLGT Coronary artery disorders, % of patients: (5%)
  HLGT Coronary artery disorders, incidence rate: 63.4 per 1,000 person years
  HLGT Heart failures, % of patients: (2%)
  HLGT Heart failures, incidence rate: 28.4 per 1,000 person years
  Heart failure, % of patients: (2%)
  Heart failure, incidence rate: 28.4 per 1,000 person years
  MI, % of patients: (2%)
  MI, incidence rate: 22.6 per 1,000 person years
  Stroke, % of patients: (<1%)
  Stroke, incidence rate: 5.63 per 1,000 person years

## CC(=O)N[C@H](Cc1ccc2ccccc2c1)C(=O)N[C@H](Cc1ccc(Cl)cc1)C(=O)N[C@H](Cc1cccnc1)C(=O)N[C@@H](CO)C(=O)N[C@@H](Cc1ccc(NC(=O)[C@@H]2CC(=O)NC(=O)N2)cc1)C(=O)N[C@H](Cc1ccc(NC(N)=O)cc1)C(=O)N[C@@H](CC(C)C)C(=O)N[C@@H](CCCCNC(C)C)C(=O)N1CCC[C@H]1C(=O)N[C@H](C)C(N)=O [Degarelix, D-Alaninamide, N-acetyl-3-(2-naphthalenyl)-D-alanyl-4-chloro-D-phenylalanyl-3-(3-pyridinyl)-D-alanyl-L-seryl-4-[[[(4S)-hexahydro-2,6-dioxo-4-pyrimidinyl]carbonyl]amino]-L phenylalanyl-4-[(aminocarbonyl)amino]-D-phenylalanyl-L leucyl-N6-(1-methylethyl)-L-lysyl-L-prolyl] (Ac-[d2Nal][dPhe(4-Cl)][d3Pal]S[Phe(4-NH2)](Dihydroorotyl(S))[dPhe(4-NHCONH2)]L[Lys(iPr)]P[dA]-NH2)
[1]
  markedly abnormal increases in weight of ≥7% from baseline, % of patients: 10%
Luteinizing hormone (LH); day 1
  decrease in median LH from baseline: approximately 88%
  median LH level: < 0.7 IU/L
[2]; Age >=65-<75
  Crude Mortality: (2%)
  Mortality per 1,000 PY, estimate: 20.2 per 1,000 PY
  No. of Deaths: 3
[2]; PCA = Localized
  Crude Mortality: (0%)
  Mortality per 1,000 PY, estimate: 0 per 1,000 PY
  No. of Deaths: 0
testosterone; after one year of treatment, 80 mg monthly
  median testosterone level: 0.087 ng/mL
testosterone; degarelix 240/160@40
  Probability of sufficient testosterone response: 96.7%
  Probability of testosterone ≤0.5 ng/mL from Day 28 through Day 364: 96.7%
  Probability of testosterone ≤0.5 ng/mL from Day 56 through Day 364: 96.7%
testosterone; [4]
  Probability of sufficient testosterone response: 97.4%
  Probability of testosterone ≤0.5 ng/mL from Day 28 through Day 364: 97.4%
  Probability of testosterone ≤0.5 ng/mL from Day 56 through Day 364: 97.4%
testosterone
  patients with testosterone suppression on day 3: 96%
testosterone; [5]
  Kaplan-Meier probability of testosterone ≤0.5 ng/mL from day 28 to day 364: 97.2%
  observed cases analysis: proportion of patients with testosterone ≤0.5 ng/mL from day 28 to day 364: 97.0%
testosterone; degarelix 240/160 mg
  Kaplan-Meier probability of testosterone ≤0.5 ng/mL from day 28 to day 364: 98.3%
  observed cases analysis: proportion of patients with testosterone ≤0.5 ng/mL from day 28 to day 364: 98.2%
testosterone; leuprolide 7.5 mg
  patients with testosterone surge (increase ≥15% from baseline): 0.2%
testosterone; maintenance monthly 80 mg, at least one year
  patients with sustained testosterone suppression: 97%
[3]; BMI 25-<30 kg/m2
  Cardiac arrhythmias, relative risk degarelix vs Lupron: 0.566
  Cardiac disorders (SOC), relative risk degarelix vs Lupron: 0.765
  Coronary artery disorders, relative risk degarelix vs Lupron: 1.013
[3]; BMI <25 kg/m2
  Cardiac arrhythmias, relative risk degarelix vs Lupron: 0.312
  Cardiac disorders (SOC), relative risk degarelix vs Lupron: 0.242
  Coronary artery disorders, relative risk degarelix vs Lupron: 0.000
[3]; BMI <25 kg/m2, listed as degarelix
  Coronary artery disorders, relative risk degarelix vs Lupron: 0.0
[3]; BMI >=30 kg/m2
  Cardiac arrhythmias, relative risk degarelix vs Lupron: 3.161
  Cardiac disorders (SOC), relative risk degarelix vs Lupron: 1.946
  Coronary artery disorders, relative risk degarelix vs Lupron: 1.217
[3]; Cholesterol <4 mmol/L
  Cardiac arrhythmias, relative risk degarelix vs Lupron: 1.973
[3]; Cholesterol >=4 mmol/L
  Cardiac arrhythmias, relative risk degarelix vs Lupron: 0.411
[3]; Cholesterol >=4 mmol/L, listed as degarelix
  Cardiac arrhythmias, relative risk degarelix vs Lupron: 0.41
[3]
  Coronary artery disease, % of patients: (3%)
  Coronary artery disease, incidence rate: 34.2 per 1,000 person years
  HLGT Cardiac arrhythmias, % of patients: (5%)
  HLGT Cardiac arrhythmias, incidence rate: 57.7 per 1,000 person years
  HLGT Central nervous system vascular disorders, % of patients: (<1%)
  HLGT Central nervous system vascular disorders, incidence rate: 14.2 per 1,000 person years
  HLGT Coronary artery disorders, % of patients: (3%)
  HLGT Coronary artery disorders, incidence rate: 34.2 per 1,000 person years
  HLGT Heart failures, % of patients: (<1%)
  HLGT Heart failures, incidence rate: 14.1 per 1,000 person years
  Heart failure, % of patients: (1%)
  Heart failure, incidence rate: 14.1 per 1,000 person years
  MI, % of patients: (<1%)
  MI, incidence rate: 5.64 per 1,000 person years
  Stroke, % of patients: (<1%)
  Stroke, incidence rate: 8.49 per 1,000 person years
